“Also recorded” adds a separate entry of the source.
Tests used:
Format in all cases: cell-based, human
PDCD4 in AGS cells = assay: Western blot of PDCD4 in AGS cells; details: 48 hours of incubation, relative to DMSO control, normalized to β-actin
Method: Data in FIG. 16B are reported as enhancement of PDCD4 levels, relative to DMSO control (no compound added).
Western blot analysis. Western blot analysis was conducted according to standard protocols. Briefly, proteins were collected from cells and lysed and the Bradford assay was used to measure protein concentrations. Quantification of protein expression was conducted using the image analysis software ImageJ.

[1] = tested on: miR-16, miR-28, miR-182 in pancreatic (ASPC1) cells; assay: qRT-PCR of miR-16, miR-28, miR-182 in ASPC1 cells; details: ASPC1, 24-72 hours post incubation, vs DMSO
Method: Levels of each microRNA were measured at different times post incubation (24-72 hours) by standard qRT-PCR, normalized to internal controls (U6 or U8 snRNA), in both gastric (AGC) and pancreatic (ASPC1) cell lines. Levels of the microRNA are generally the same, within experimental uncertainty, in the absence (DMSO) or presence of compound −0052 (30).
FIGS. 15A-15F show the levels of mature miR-16, miR-28, and miR-182 are not consistently affected by the compounds in both gastric (AGS) and pancreatic (ASPC1) cell lines, over multiple time scales (24-72 hours), relative to control where DMSO was added, but no compound.
Cell line maintenance. Using the Cancer Cell Line Encyclopedia (CCLE), in-house cancer cell lines were screened to identify cancer and tissue types with varying levels of miR-21 expression. Experiments were performed using the human-derived cell lines AGS (gastric cancer) and AsPC-1 (pancreatic cancer). […]
(§1) Quantitative real time PCR analysis. […] RNA concentration was assessed with the NanoDrop ND-1000 spectrophotometer (ThermoFisher Scientific). […] Expression of miR-21 was assessed utilizing the TaqMan microRNA assay (Applied Biosystems). […] All experiments were performed in triplicate, with all samples normalized to the internal controls and relative expression levels calculated using the 2^ΔΔCt method.

[2] = tested on: pancreatic (ASPC1) cancer cell line; assay: MTS proliferation assay, ASPC1; details: for viability (anti-proliferative activity), MTS: as a function of time, triplicate
Source text: FIGS. 10A-10F compare anti-proliferative activity of 10 nmoles of compounds −0045 and −0052 against gastric (AGS) (FIGS. 10B and 10C, respectively) and pancreatic (ASPC1) (FIGS. 10E and 10F, respectively) cancer cell lines, as measured as a function of time and compared to palbociclib (−000) (FIGS. 10A-AGS; and 10D-ASPC1) using standard MTS assays in the indicated cell lines; results were in triplicate with reported experimental uncertainty.
FIGS. 11A-11F compare anti-proliferative activity of 5 nmoles of compounds −0045 and −0052 against gastric (AGS) (FIGS. 11B and 11C, respectively) and pancreatic (ASPC1) (FIGS. 11E and 11F, respectively) cancer cell lines, as measured as a function of time and compared to palbociclib (−000) (FIGS. 11A-AGS; and 11D-ASPC1), using standard MTS assays in the indicated cell lines; results were in triplicate with reported experimental uncertainty.
The anti-proliferative activity of compounds −0045 and −0052 in two cell lines characterized by high levels of miR-21 (gastric adenocarcinoma (AGS) and pancreatic (ASPC1) cancer origin) was determined. These experiments were conducted in a double-blind format, without knowledge of the identity or binding activity of the compounds, to avoid any unintentional bias. […] Viability in the presence of both palbociclib and compound −0052 is decreased after approximately 72-96 hrs to a statistically significant extent (data points marked with asterisks are statistically significant).
Cell line maintenance. Using the Cancer Cell Line Encyclopedia (CCLE), in-house cancer cell lines were screened to identify cancer and tissue types with varying levels of miR-21 expression. Experiments were performed using the human-derived cell lines AGS (gastric cancer) and AsPC-1 (pancreatic cancer). Cell lines were obtained from the American Type Culture Collection and maintained per instructions from the supplier. AGS were cultured in F12K medium supplemented with 10% FBS. AsPC-1 were cultured in RPMI, with 10% FBS added. All cells were kept at 37° C. in a humidified atmosphere of 5% CO2 and underwent regular mycoplasma testing. All experiments were conducted when cells were 70-80% confluent.
Proliferation assay. The impact of the compound on cellular proliferation was assessed, with 5,000 cells in each cell line seeded in replicates of 6 in a 96 well plate and treated with DMSO or with compounds. After 48 hours, cells were treated with the MTS reagent and optical density was read to generate dose-response curves.

[3] = tested on: mature miR-10b in ASPC1 cells; assay: qRT-PCR of mature miR-10b in ASPC1 cells; details: ASPC1, 10 nmoles, 48 hours, relative to DMSO control
Method: FIGS. 14A-14D compare levels of mature miR-10b and pre-miR-10b measured in gastric adenocarcinoma (AGS) (FIGS. 14A and 14B, respectively) and pancreatic cancer cell line (ASPC 1) (FIGS. 14C and 14D, respectively), normalized to internal controls (U6 or U8 snRNA), in the presence of 10 nmoles of palbociclib (a negative control not expected to directly affect miRNA levels) and compounds −0045 and −0052, 48 hours after incubation, relative to DMSO control, and measured by standard qRT-PCR. We notice that levels of pre-miR-10b are very low in both cell lines, rendering the data very uncertain. Statistically significant changes are labeled with asterisks.
In order to investigate whether inhibition was specific to miR-21, levels of mature miR-10b and pre-miR-10b were examined in the same cell lines (FIGS. 14A-14D); this is another oncogenic microRNA implicated in metastasis. […]
as §1

| SMILES | levels of PDCD4 (Western blot) (PDCD4 in AGS cells; listed as −0052) | cellular levels of miR-16, miR-28, miR-182 [1] | viability (anti-proliferative activity), MTS ([2]; ASPC1, 5 nmoles of compound) | viability (anti-proliferative activity), MTS ([2]; ASPC1, 10 nmoles of compound) | cell killing activity, MTS over 6 days ([2]; ASPC1, both concentrations tested (10 and 5 nmols), double-blind) | reduction of levels of mature miR-10b [3] | levels of PDCD4 (Western blot) (PDCD4 in AGS cells; listed as −0045) | change in levels of mature miR-10b [3] |
| --- | --- | --- | --- | --- | --- | --- | --- | --- |
| O=c1[nH]c(Nc2ccc(N3CCNCC3)cn2)nc2cnccc12 [Compound 30] | an increase was observed; also recorded: increase levels of PDCD4 | does not affect cellular levels | reduce the viability of both cell lines to a statistically significant extent | reduce the viability of both cell lines to a statistically significant extent | Cell killing activity | about 2 fold |  |  |
| O=c1[nH]c(Nc2ccc(N3CCNCC3)cn2)nc2cccnc12 [Compound 25] |  |  | does not | does not |  |  | an increase was observed; also recorded: increase levels of PDCD4 | smaller and not statistically significant changes |

Source: patent publication US20230416247A1, “DRUG-LIKE MOLECULES AND METHODS FOR THE THERAPEUTIC TARGETING OF MICRORNA-21” (University of Washington, priority 2020, published 2023)
